Values after ≈ are worked out from the molar mass of the structure shown.
What was measured:
[1] = test system: Staphylococcus aureus; assay: MIC by serial dilution; assay type: cell-based
Method: (§1) Antibiotic activity, which is assumed to be based on the inhibition of the RNA polymerase, was tested against several gram-positive and gram-negative bacteria and Saccharomyces cerevisiae, including a Rifampicin resistant Staphylococcus aureus clinical isolate.
(§2) The microorganisms tested were grown on 1% peptone, 0.1% meat extract, 0.1% yeast extract medium containing 1.5% agar at pH 7.0. MIC values were determined by serial dilution. Table 2: Antimicrobial activity of Etnangien methylester in comparison to Etnangien acid 1

[2] = test system: S. aureus, Rifampicin resistant; assay: MIC by serial dilution; assay type: cell-based; conditions: Staphylococcus aureus
Method: as §1, §2

[3] = test system: Bacillus subtilis; assay: MIC by serial dilution; assay type: cell-based
Method: as §1, §2

[4] = test system: Micrococcus luteus; assay: MIC by serial dilution; assay type: cell-based
Method: as §1, §2

[5] = test system: Corynebacterium glutamicum (DSM 20300); assay: MIC by serial dilution; assay type: cell-based; conditions: DSM20300
Method: as §1, §2

[6] = test system: Nocardia corallina; assay: MIC by serial dilution; assay type: cell-based; conditions: Gordonia rubripertincta
Method: as §1, §2

[7] = test system: E. coli; assay: MIC by serial dilution; assay type: cell-based; conditions: Escherichia coli
Method: as §1, §2

[8] = test system: Saccharomyces cerevisiae; assay: MIC by serial dilution; assay type: cell-based
Method: as §1, §2

[9] = molecular target: T1, HIV I reverse transcriptase (HIVRT) (Human immunodeficiency virus type 1 group M subtype B, UniProt P04585); assay: Nucleic acid polymerase inhibition, in vitro assay; assay type: biochemical; conditions: result in words
T1 construct: HIV I reverse transcriptase (HIVRT)
Method: (§3) Similar antiviral activity is found for the Etnangien esters according to the invention.
(§4) Measurement results showing the nucleic acid polymerase inhibition by Etnangien 1 are shown in Figure 2 for E. coli RNA polymerase (EcRNAP), E. coli DNA polymerase (EcDNAP), and HIV I reverse transcriptase (HIVRT), and in Figure 3 for Moloney murine leukemia virus reverse transcriptase (MuLVRT). In vitro assays were performed according to Richardson et al. (J. Biol. Chem. 222-232 (1964)) and Houts et al. (J. Virol. 517-522(1979)). Maximum inhibition for E. coli polymerases was found for concentrations of 50 to 60 µg/mL, although E. coli itself was rather resistant.

[10] = molecular target: T2, Moloney murine leukemia virus reverse transcriptase (MuLVRT) (Moloney murine leukemia virus, UniProt P03355); assay: Nucleic acid polymerase inhibition, in vitro assay; assay type: biochemical
T2 construct: Moloney murine leukemia virus reverse transcriptase (MuLVRT)
Method: as §3, §4

Compound | MIC [1] | MIC [2] | MIC [3] | MIC [4] | MIC [5] | MIC [6] | MIC [7] | MIC [8] | inhibition of viral reverse transcriptase [9] | concentration of maximum inhibition ([10]; MuLVRT, Figure 3) | inhibition of reverse transcriptase ([10]; at concentrations of 5 µg/mL)
COC(=O)CC/C(C)=C/C(O)C/C=C/C=C/C=C/C=C/C=C/C(C)=C/C(O)C(C)C1CC(O)CCCC(OC)C/C=C\C=C\CC(C)C(O)C(C)C(O)C(C)C(O)CC(=O)O1 (stereo not drawn) [Etnangien methylester] | 2.5 µg/mL (≈ 2.92 µM) | 3.1 µg/mL (≈ 3.63 µM) | 20 µg/mL (≈ 23.4 µM) | 0.39 µg/mL (≈ 0.456 µM) | 0.24 µg/mL (≈ 0.281 µM) | 0.12 µg/mL (≈ 0.14 µM) | > 80 µg/mL | > 40 µg/mL |  |  | 
COC1C/C=C\C=C\CC(C)C(O)C(C)C(O)C(C)C(O)CC(=O)OC(C(C)C(O)/C=C(C)/C=C/C=C/C=C/C=C/C=C/CC(O)/C=C(\C)CCC(=O)O)CC(O)CCC1 (stereo not drawn) [Etnangien] |  |  |  |  |  |  | > 80 µg/mL |  |  |  | 
Etnangien |  |  |  |  |  |  |  |  | potent inhibitor | 5 µg/mL | inhibited completely

— EP2014655B1, “Etnangien derivatives and their use as antibiotics” (Helmholtz-Zentrum für Infektionsforschung, priority 2007, dated 2009)
